Measured values reported in ChEMBL document CHEMBL4308841, “Synthesis, in vitro antiproliferative activity, and kinase inhibitory effects of pyrazole-containing diarylureas and diarylamides” (Eur J Med Chem, 2018).

Legend:
[1] = system: NCI-H23; assay: Growth inhibition of human NCI-H23 cells assessed as cell growth at 100 uM incubated for 48 hrs by sulforhodamine B assay relative to control; type: functional; conditions: NCI-H23, 48 h, read-out: Activity
[2] = system: A549; assay: Growth inhibition of human A549/ATCC cells incubated for 48 hrs by sulforhodamine B assay; type: functional, cell-based; conditions: A549, 48 h
[3] = system: NCI-H23; assay: Growth inhibition of human NCI-H23 cells assessed as cell growth at 1 uM incubated for 48 hrs by sulforhodamine B assay relative to control; type: functional; conditions: NCI-H23, 48 h, read-out: Activity
[4] = system: OVCAR-5; assay: Growth inhibition of human OVCAR5 cells assessed as cell growth at 0.01 uM incubated for 48 hrs by sulforhodamine B assay relative to control; type: functional; conditions: OVCAR-5, 48 h, read-out: Activity
[5] = system: MCF7; assay: Growth inhibition of human MCF7 cells assessed as cell growth at 0.01 uM incubated for 48 hrs by sulforhodamine B assay relative to control; type: functional; conditions: MCF7, 48 h, read-out: Activity
[6] = system: NCI/ADR-RES; assay: Growth inhibition of human NCI/ADR-RES cells assessed as cell growth at 0.1 uM incubated for 48 hrs by sulforhodamine B assay relative to control; type: functional; conditions: read-out: Activity
[7] = system: LOX IMVI; assay: Growth inhibition of human LOXIMVI cells assessed as cell growth at 0.01 uM incubated for 48 hrs by sulforhodamine B assay relative to control; type: functional; conditions: read-out: Activity
[8] = system: NCI-H322M; assay: Growth inhibition of human NCI-H322M cells assessed as cell growth at 1 uM incubated for 48 hrs by sulforhodamine B assay relative to control; type: functional; conditions: read-out: Activity
[9] = system: SF-268; assay: Growth inhibition of human SF268 cells assessed as cell growth at 0.01 uM incubated for 48 hrs by sulforhodamine B assay relative to control; type: functional; conditions: SF-268, 48 h, read-out: Activity
[10] = system: SNB-19; assay: Growth inhibition of human SNB19 cells assessed as cell growth at 0.01 uM incubated for 48 hrs by sulforhodamine B assay relative to control; type: functional; conditions: SNB-19, 48 h, read-out: Activity
[11] = system: COLO 205; assay: Growth inhibition of human COLO205 cells incubated for 48 hrs by sulforhodamine B assay; type: functional, cell-based; conditions: COLO 205, 48 h
[12] = system: KM12; assay: Growth inhibition of human KM12 cells assessed as cell growth at 100 uM incubated for 48 hrs by sulforhodamine B assay relative to control; type: functional; conditions: KM12, 48 h, read-out: Activity
[13] = system: UACC-62; assay: Growth inhibition of human UACC62 cells assessed as cell growth at 0.01 uM incubated for 48 hrs by sulforhodamine B assay relative to control; type: functional; conditions: UACC-62, 48 h, read-out: Activity
[14] = system: HCT-15; assay: Growth inhibition of human HCT15 cells assessed as cell growth at 1 uM incubated for 48 hrs by sulforhodamine B assay relative to control; type: functional; conditions: HCT-15, 48 h, read-out: Activity
[15] = system: NCI-H226; assay: Growth inhibition of human NCI-H226 cells assessed as cell growth at 1 uM incubated for 48 hrs by sulforhodamine B assay relative to control; type: functional; conditions: NCI-H226, 48 h, read-out: Activity
[16] = system: K562; assay: Growth inhibition of human K562 cells assessed as cell growth at 100 uM incubated for 48 hrs by sulforhodamine B assay relative to control; type: functional; conditions: K562, 48 h, read-out: Activity
[17] = system: SK-MEL-5; assay: Growth inhibition of human SK-MEL-5 cells assessed as cell growth at 0.1 uM incubated for 48 hrs by sulforhodamine B assay relative to control; type: functional; conditions: SK-MEL-5, 48 h, read-out: Activity
[18] = system: CAKI-1; assay: Growth inhibition of human Caki1 cells assessed as cell growth at 0.1 uM incubated for 48 hrs by sulforhodamine B assay relative to control; type: functional; conditions: CAKI-1, 48 h, read-out: Activity
[19] = system: 786-0; assay: Growth inhibition of human 786-0 cells assessed as cell growth at 0.1 uM incubated for 48 hrs by sulforhodamine B assay relative to control; type: functional; conditions: 786-0, 48 h, read-out: Activity
[20] = system: SK-MEL-5; assay: Growth inhibition of human SK-MEL-5 cells assessed as cell growth at 100 uM incubated for 48 hrs by sulforhodamine B assay relative to control; type: functional; conditions: SK-MEL-5, 48 h, read-out: Activity
[21] = system: MDA-MB-468; assay: Growth inhibition of human MDA-MB-468 cells incubated for 48 hrs by sulforhodamine B assay; type: functional, cell-based; conditions: MDA-MB-468, 48 h
[22] = system: T47D; assay: Growth inhibition of human T47D cells incubated for 48 hrs by sulforhodamine B assay; type: functional, cell-based
[23] = system: RPMI-8226; assay: Growth inhibition of human RPMI8226 cells assessed as cell growth at 0.01 uM incubated for 48 hrs by sulforhodamine B assay relative to control; type: functional; conditions: RPMI-8226, 48 h, read-out: Activity
[24] = system: HCT-116; assay: Growth inhibition of human HCT116 cells incubated for 48 hrs by sulforhodamine B assay; type: functional, cell-based; conditions: HCT-116, 48 h
[25] = system: K562; assay: Growth inhibition of human K562 cells assessed as cell growth at 0.1 uM incubated for 48 hrs by sulforhodamine B assay relative to control; type: functional; conditions: K562, 48 h, read-out: Activity
[26] = system: HT-29; assay: Growth inhibition of human HT-29 cells assessed as cell growth at 1 uM incubated for 48 hrs by sulforhodamine B assay relative to control; type: functional; conditions: HT-29, 48 h, read-out: Activity
[27] = system: SN12C; assay: Growth inhibition of human SN12C cells assessed as cell growth at 0.1 uM incubated for 48 hrs by sulforhodamine B assay relative to control; type: functional; conditions: read-out: Activity
[28] = system: MDA-MB-468; assay: Growth inhibition of human MDA-MB-468 cells assessed as cell growth at 1 uM incubated for 48 hrs by sulforhodamine B assay relative to control; type: functional; conditions: MDA-MB-468, 48 h, read-out: Activity
[29] = system: SNB-75; assay: Growth inhibition of human SNB75 cells assessed as cell growth at 0.1 uM incubated for 48 hrs by sulforhodamine B assay relative to control; type: functional; conditions: SNB-75, 48 h, read-out: Activity
[30] = read-out: LC50 (the source's name)
[31] = read-out: pLC50 (the source's name) (converted)

Molecule `O=C(Nc1cccc(-n2cc(-c3ccncc3)c(-c3cc(O)cc(Cl)c3)n2)c1)Nc1ccc(Cl)c(Cl)c1` has a growth at 100 µM [1] of -35%, an IC50 [2] of 1960 nM and a GI50 ([2]; read-out: GI50) of 1960 nM. It also gave a CC50 [2, 30] greater than 100 µM, a TGI ([2]; read-out: TGI) of 75.4 µM and a GI50 ([2]; read-out: pGI50 (converted)) of 1950 nM. For the same molecule, the CC50 [2, 31] was greater than 100 µM, the TGI ([2]; read-out: pTGI (converted)) was 7.59 µM and the growth at 1 µM [3] was 96%. The growth at 0.01 µM [4] was 53%, the growth at 0.01 µM [5] was 93% and the growth at 0.1 µM [6] was 105%. The growth at 0.01 µM [7] was 106%, the growth at 1 µM [8] was 59% and the growth at 0.01 µM [9] was 94%. It also gave a growth at 0.01 µM [10] of 97%, a GI50 ([11]; read-out: GI50) of 1960 nM and a CC50 [11, 30] of 7.29 µM. It also gave a TGI ([11]; read-out: TGI) of 37.8 µM, a GI50 ([11]; read-out: pGI50 (converted)) of 1950 nM and a CC50 [11, 31] of 7.24 µM. The TGI ([11]; read-out: pTGI (converted)) was 3.8 µM, the growth at 100 µM [12] was -63% and the growth at 0.01 µM [13] was 96%. The growth at 1 µM [14] was 75%, the growth at 1 µM [15] was 96% and the growth at 100 µM [16] was 5%. It also gave a growth at 0.1 µM [17] of 92%, a growth at 0.1 µM [18] of 98% and a growth at 0.1 µM [19] of 90%. It also gave a growth at 100 µM [20] of -78%, an IC50 [21] of 1710 nM and a GI50 ([21]; read-out: GI50) of 1700 nM. The CC50 [21, 30] was greater than 100 µM, the TGI ([21]; read-out: TGI) was 70.9 µM and the GI50 ([21]; read-out: pGI50 (converted)) was 1700 nM. It also gave a CC50 [21, 31] greater than 100 µM, a TGI ([21]; read-out: pTGI (converted)) of 7.08 µM and a GI50 ([22]; read-out: GI50) of 2320 nM. For the same molecule, the CC50 [22, 30] was greater than 100 µM, the TGI ([22]; read-out: TGI) was 61.7 µM and the GI50 ([22]; read-out: pGI50 (converted)) was 2400 nM. For the same molecule, the CC50 [22, 31] was greater than 100 µM, the TGI ([22]; read-out: pTGI (converted)) was 6.17 µM and the growth at 0.01 µM [23] was 104%. It also gave an IC50 [24] of 1740 nM, a GI50 ([24]; read-out: GI50) of 1740 nM and a CC50 [24, 30] of 9.59 µM. The TGI ([24]; read-out: TGI) was 41 µM, the GI50 ([24]; read-out: pGI50 (converted)) was 1740 nM and the CC50 [24, 31] was 9.77 µM. For the same molecule, the TGI ([24]; read-out: pTGI (converted)) was 4.07 µM, the growth at 0.1 µM [25] was 100% and the growth at 1 µM [26] was 96%. The growth at 0.1 µM [27] was 95%, the growth at 1 µM [28] was 59% and the growth at 0.1 µM [29] was 52%.
